#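 96-well plates; 48 h exposure; 5 concentrations. Endpoints by linear interpolation between flanking doses. Not reached: highest tested concentration assigned. GI50 = concentration required for 50% inhibition of growth.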 Active and inactive are the calls of the source. Rule as the data show it: active = GI50 up to about 1.1 µM and inactive = higher.
# Legend:
# Test in all cases: inhibition of tumour cell growth, NCI panel, 48 h
# 786-0 = test system: 786-0
# A549 = test system: A549
# CCRF-CEM = test system: CCRF-CEM
# COLO 205 = test system: COLO 205
# DLD-1 = test system: DLD-1
# DMS-114 = test system: DMS-114
# DMS-273 = test system: DMS-273
# EKVX = test system: EKVX
# HCC 2998 = test system: HCC 2998
# HCT-116 = test system: HCT-116
# HL-60 = test system: HL-60
# HOP-18 = test system: HOP-18
# HOP-62 = test system: HOP-62
# HT-29 = test system: HT-29
# IGROV-1 = test system: IGROV-1
# K562 = test system: K562
# KM-20L2 = test system: KM-20L2
# KM12 = test system: KM12
# LOX IMVI = test system: LOX IMVI
# LXFL 529 = test system: LXFL 529
# M14 = test system: M14
# M19-MEL = test system: M19-MEL
# MOLT-4 = test system: MOLT-4
# NCI-H226 = test system: NCI-H226
# NCI-H23 = test system: NCI-H23
# NCI-H460 = test system: NCI-H460
# NCI-H522 = test system: NCI-H522
# OVCAR-3 = test system: OVCAR-3
# OVCAR-4 = test system: OVCAR-4
# OVCAR-8 = test system: OVCAR-8
# RPMI-8226 = test system: RPMI-8226
# RXF 393 = test system: RXF 393
# SF-268 = test system: SF-268
# SF-295 = test system: SF-295
# SF-539 = test system: SF-539
# SK-MEL-28 = test system: SK-MEL-28
# SK-MEL-5 = test system: SK-MEL-5
# SK-OV-3 = test system: SK-OV-3
# SN12C = test system: SN12C
# SNB-19 = test system: SNB-19
# SNB-75 = test system: SNB-75
# SNB-78 = test system: SNB-78
# SW-620 = test system: SW-620
# TK-10 = test system: TK-10
# U-251 = test system: U-251
# UACC-62 = test system: UACC-62
# XF498 = test system: XF498
# A498 = test system: A498
# ACHN = test system: ACHN
# CAKI-1 = test system: CAKI-1
# HCT-15 = test system: HCT-15
# HOP-92 = test system: HOP-92
# Malme-3M = test system: Malme-3M
# OVCAR-5 = test system: OVCAR-5
# SK-MEL-2 = test system: SK-MEL-2
# SR = test system: SR
# UACC-257 = test system: UACC-257
# UO-31 = test system: UO-31
# RXF 631 = test system: RXF 631
smiles,measurement,setting,value
COCN1C(=O)C2CC(/C=C/C(N)=O)=CN2C(=O)c2ccccc21 (stereo unspecified),GI50,786-0,> 100 µM (inactive)
same,GI50,A549,> 100 µM (inactive)
same,GI50,CCRF-CEM,> 100 µM (inactive)
same,GI50,COLO 205,> 100 µM (inactive)
same,GI50,DLD-1,> 100 µM (inactive)
same,GI50,DMS-114,> 100 µM (inactive)
same,GI50,DMS-273,> 100 µM (inactive)
same,GI50,EKVX,> 100 µM (inactive)
same,GI50,HCC 2998,> 100 µM (inactive)
same,GI50,HCT-116,> 100 µM (inactive)
same,GI50,HL-60,> 100 µM (inactive)
same,GI50,HOP-18,> 100 µM (inactive)
same,GI50,HOP-62,> 100 µM (inactive)
same,GI50,HT-29,> 100 µM (inactive)
same,GI50,IGROV-1,> 100 µM (inactive)
same,GI50,K562,> 100 µM (inactive)
same,GI50,KM-20L2,> 100 µM (inactive)
same,GI50,KM12,> 100 µM (inactive)
same,GI50,LOX IMVI,> 100 µM (inactive)
same,GI50,LXFL 529,> 100 µM (inactive)
same,GI50,M14,> 100 µM (inactive)
same,GI50,M19-MEL,> 100 µM (inactive)
same,GI50,MOLT-4,> 100 µM (inactive)
same,GI50,NCI-H226,> 100 µM (inactive)
same,GI50,NCI-H23,> 100 µM (inactive)
same,GI50,NCI-H460,> 100 µM (inactive)
same,GI50,NCI-H522,> 100 µM (inactive)
same,GI50,OVCAR-3,> 100 µM (inactive)
same,GI50,OVCAR-4,> 100 µM (inactive)
same,GI50,OVCAR-8,> 100 µM (inactive)
same,GI50,RPMI-8226,> 100 µM (inactive)
same,GI50,RXF 393,> 100 µM (inactive)
same,GI50,SF-268,> 100 µM (inactive)
same,GI50,SF-295,> 100 µM (inactive)
same,GI50,SF-539,> 100 µM (inactive)
same,GI50,SK-MEL-28,> 100 µM (inactive)
same,GI50,SK-MEL-5,> 100 µM (inactive)
same,GI50,SK-OV-3,> 100 µM (inactive)
same,GI50,SN12C,> 100 µM (inactive)
same,GI50,SNB-19,> 100 µM (inactive)
same,GI50,SNB-75,> 100 µM (inactive)
same,GI50,SNB-78,> 100 µM (inactive)
same,GI50,SW-620,> 100 µM (inactive)
same,GI50,TK-10,> 100 µM (inactive)
same,GI50,U-251,> 100 µM (inactive)
same,GI50,UACC-62,> 100 µM (inactive)
same,GI50,XF498,> 100 µM (inactive)
COc1ccc(S(=O)(=O)N/N=C(\C)CN2C(=O)c3ccccc3C2=O)cc1OC,GI50,786-0,> 100 µM (inactive)
same,GI50,A498,> 100 µM (inactive)
same,GI50,A549,> 100 µM (inactive)
same,GI50,ACHN,> 100 µM (inactive)
same,GI50,CAKI-1,> 100 µM (inactive)
same,GI50,CCRF-CEM,> 100 µM (inactive)
same,GI50,COLO 205,> 100 µM (inactive)
same,GI50,DLD-1,> 100 µM (inactive)
same,GI50,DMS-114,> 100 µM (inactive)
same,GI50,DMS-273,> 100 µM (inactive)
same,GI50,EKVX,> 100 µM (inactive)
same,GI50,HCC 2998,> 100 µM (inactive)
same,GI50,HCT-116,> 100 µM (inactive)
same,GI50,HCT-15,> 100 µM
same,GI50,HL-60,> 100 µM (inactive)
same,GI50,HOP-18,> 100 µM (inactive)
same,GI50,HOP-62,> 100 µM (inactive)
same,GI50,HOP-92,> 100 µM (inactive)
same,GI50,HT-29,> 100 µM (inactive)
same,GI50,IGROV-1,> 100 µM (inactive)
same,GI50,K562,> 100 µM (inactive)
same,GI50,KM-20L2,> 100 µM (inactive)
same,GI50,KM12,> 100 µM (inactive)
same,GI50,LXFL 529,> 100 µM (inactive)
same,GI50,M14,> 100 µM (inactive)
same,GI50,M19-MEL,> 100 µM (inactive)
same,GI50,MOLT-4,> 100 µM (inactive)
same,GI50,Malme-3M,> 100 µM (inactive)
same,GI50,NCI-H226,> 100 µM (inactive)
same,GI50,NCI-H23,> 100 µM (inactive)
same,GI50,NCI-H460,> 100 µM (inactive)
same,GI50,NCI-H522,> 100 µM (inactive)
same,GI50,OVCAR-3,> 100 µM (inactive)
same,GI50,OVCAR-4,> 100 µM (inactive)
same,GI50,OVCAR-5,> 100 µM (inactive)
same,GI50,OVCAR-8,> 100 µM (inactive)
same,GI50,RPMI-8226,> 100 µM (inactive)
same,GI50,SF-268,> 100 µM (inactive)
same,GI50,SF-295,> 100 µM (inactive)
same,GI50,SF-539,> 100 µM (inactive)
same,GI50,SK-MEL-28,> 100 µM (inactive)
same,GI50,SK-MEL-2,> 100 µM (inactive)
same,GI50,SK-MEL-5,> 100 µM (inactive)
same,GI50,SK-OV-3,> 100 µM (inactive)
same,GI50,SN12C,> 100 µM (inactive)
same,GI50,SNB-19,> 100 µM (inactive)
same,GI50,SNB-75,> 100 µM (inactive)
same,GI50,SNB-78,> 100 µM (inactive)
same,GI50,SR,> 100 µM (inactive)
same,GI50,SW-620,> 100 µM (inactive)
same,GI50,TK-10,> 100 µM (inactive)
same,GI50,U-251,> 100 µM (inactive)
same,GI50,UACC-257,> 100 µM (inactive)
same,GI50,UACC-62,> 100 µM (inactive)
same,GI50,UO-31,> 100 µM (inactive)
same,GI50,XF498,> 100 µM (inactive)
Cc1cc(C)nc(NS(=O)(=O)c2ccc(NC(=O)c3cccc4cc5ccccc5nc34)cc2)n1,GI50,786-0,39.5 µM (inactive)
same,GI50,A498,21.3 µM (inactive)
same,GI50,A549,34.3 µM (inactive)
same,GI50,ACHN,44.3 µM (inactive)
same,GI50,CAKI-1,50.9 µM (inactive)
same,GI50,CCRF-CEM,21.4 µM (inactive)
same,GI50,COLO 205,39.4 µM (inactive)
same,GI50,DLD-1,27.5 µM (inactive)
same,GI50,DMS-273,21.9 µM (inactive)
same,GI50,EKVX,69.8 µM (inactive)
same,GI50,HCT-116,17.2 µM (inactive)
same,GI50,HCT-15,21 µM
same,GI50,HOP-62,62.7 µM (inactive)
same,GI50,HT-29,35.8 µM (inactive)
same,GI50,IGROV-1,35.5 µM (inactive)
same,GI50,K562,24.5 µM (inactive)
same,GI50,KM-20L2,37.2 µM (inactive)
same,GI50,KM12,24.5 µM (inactive)
same,GI50,LOX IMVI,22.9 µM (inactive)
same,GI50,LXFL 529,36.1 µM (inactive)
same,GI50,M14,24.2 µM (inactive)
same,GI50,M19-MEL,28.2 µM (inactive)
same,GI50,MOLT-4,19.6 µM (inactive)
same,GI50,Malme-3M,23.4 µM (inactive)
same,GI50,NCI-H226,23.2 µM (inactive)
same,GI50,NCI-H23,25.9 µM (inactive)
same,GI50,NCI-H460,34 µM (inactive)
same,GI50,NCI-H522,18.7 µM (inactive)
same,GI50,OVCAR-3,24.8 µM (inactive)
same,GI50,OVCAR-4,32.8 µM (inactive)
same,GI50,OVCAR-5,62.2 µM (inactive)
same,GI50,OVCAR-8,33 µM (inactive)
same,GI50,RPMI-8226,21.4 µM (inactive)
same,GI50,RXF 393,23.1 µM (inactive)
same,GI50,RXF 631,28.5 µM (inactive)
same,GI50,SF-268,16.2 µM (inactive)
same,GI50,SF-295,30.1 µM (inactive)
same,GI50,SF-539,15.3 µM (inactive)
same,GI50,SK-MEL-28,31.2 µM (inactive)
same,GI50,SK-MEL-2,30.3 µM (inactive)
same,GI50,SK-MEL-5,25.5 µM (inactive)
same,GI50,SK-OV-3,> 100 µM (inactive)
same,GI50,SN12C,28.5 µM (inactive)
same,GI50,SNB-19,25.7 µM (inactive)
same,GI50,SNB-75,51.4 µM (inactive)
same,GI50,SNB-78,25.2 µM (inactive)
same,GI50,SW-620,32.7 µM (inactive)
same,GI50,TK-10,50.2 µM (inactive)
same,GI50,U-251,30.6 µM (inactive)
same,GI50,UACC-257,37.3 µM (inactive)
same,GI50,UACC-62,20 µM (inactive)
same,GI50,UO-31,53.8 µM (inactive)
same,GI50,XF498,25.3 µM (inactive)
